Read-outs that look alike come from different tables or passages of the source.
Columns and labels:
IRAK4 = target: T1, IRAK4 (Homo sapiens, UniProt Q9NWZ3); test: IRAK4 Degradation Assay, HiBiT Method; format: cell-based; settings: 293T cells expressing HiBiT-tagged IRAK4, 6 hours
T1 construct: 293Tcells expressing HiBiT-tagged IRAK4 were then added into 384-well plates
T1 sequence (Q9NWZ3 1-460): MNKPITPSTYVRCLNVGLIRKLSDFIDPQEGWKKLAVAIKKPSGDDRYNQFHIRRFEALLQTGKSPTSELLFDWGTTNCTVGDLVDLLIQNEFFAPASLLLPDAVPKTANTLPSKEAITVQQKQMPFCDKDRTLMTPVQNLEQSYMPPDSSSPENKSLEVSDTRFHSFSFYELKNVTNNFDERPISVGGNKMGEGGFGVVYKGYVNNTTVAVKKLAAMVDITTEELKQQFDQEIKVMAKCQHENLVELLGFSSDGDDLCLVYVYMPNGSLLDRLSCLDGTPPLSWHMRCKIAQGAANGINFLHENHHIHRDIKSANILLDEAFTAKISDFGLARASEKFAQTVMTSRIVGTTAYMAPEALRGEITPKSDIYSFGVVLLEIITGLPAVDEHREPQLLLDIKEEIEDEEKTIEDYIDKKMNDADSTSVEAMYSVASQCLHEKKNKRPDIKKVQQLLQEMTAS
Method in brief: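 Luminescent read-out with Nano-Glo HiBiT lytic reagent after 6 h compound exposure at 37 °C. Cells were HiBiT-IRAK4 knock-in 293T (C-terminal tag), 10,000 per well. Compounds ran as 11-point half-log dilutions from […] highest dose, duplicate wells; DMSO served as negative control.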

[1] = Pharmacokinetics (PK) in Male Beagle Dogs; format: in vivo; settings: dog, plasma; for Vd: read-out: Vdss
Procedure: Assay 3. Pharmacokinetics (PK) in Male Beagle Dogs
The pharmacokinetic (PK) profile in plasma of two compounds of the present invention was determined in male beagle dogs following single dose IV (5 mg/kg) and PO (10 mg/kg) administration. This study was performed under non-GLP conditions, and unless otherwise stated, all analytical reagents were standard laboratory reagent grade.
Male beagle dogs were housed individually and maintained in a controlled environment. Pedigree® standard dog chow (Pedigree India Private Ltd, Telangana, India) was provided once daily. Drinking water was available ad libitum. Environmental controls for the animal room were set to maintain a temperature range of 22-25° C., relative humidity range of 40-70%, and a 12-hour light/12-hour dark cycle. Normal healthy animals weighing 10±1 kg, certified by the attending veterinarian, were selected and acclimatized for a minimum of three days prior to initiation of study. Dogs were identified by chip number inserted at the neck region. The study protocol was reviewed and approved by the Institutional Animal Ethics Committee (IAEC).
2-[4-[[4-[1-(2,6-dioxo-3-piperidyl)-3-methyl-2-oxo-benzimidazol-5-yl]-1-piperidyl]methyl]cyclohexyl]-7-isopropoxy-N-pyrazolo[1,5-a]pyrimidin-3-yl-imidazo[1,2-a]pyridine-6-carboxamide, as described in Example 48 (“Compound 48”), and 2-((1R,4S)-4-((4-(1-(2,6-dioxopiperidin-3-yl)-3-methyl-2-oxo-2,3-dihydro-1H-benzo[d]imidazol-5-yl)piperidin-1-yl)methyl)cyclohexyl)-N-(1-((1S,2R)-2-fluorocyclopropyl)-2-oxo-1,2-dihydropyridin-3-yl)-7-isopropoxyimidazo[1,2-a]pyridine-6-carboxamide, as described in Example 169 (“Compound 169”), were each formulated by dissolving the compound in polyethylene glycol (PEG400) (10%) with stirring, followed by the slow addition of 11.11% 2-Hydroxypropyl-beta-cyclodextrin (HPβCD) (90%) in water. Vehicle dose was PEG400 (10%) and 11.11% HP-β-CD (90%) in water. Formulations and vehicle were freshly prepared on the day of dosing and stored at room temperature until used.
All animals were weighed prior to drug administration. The animals were divided into intravenous (IV) group and per os (PO) group for each compound tested, with 3 animals in each group. The vehicle dosing group also included IV and PO groups, making a total of 6 groups of 3 animals each, for 18 animals total. The animals were restrained physically in sternal recumbently, on an examination table. The IV dose was administered by intravenous bolus injection into the cephalic vein and the PO dose was administered via gastric tube. The dosing volume was 1 mL/kg for IV groups and 2 mL/kg for PO groups. The dosing concentration was 5 mg/mL for both IV and PO groups respectively. The animals were fasted overnight and food was provided 4 hours post dose. […] Apart from this, animals were observed twice daily for any clinical signs, if any, and noted accordingly.
From the vehicle treatment group, whole blood was collected for peripheral blood mononuclear cells (PBMC) isolation at Pre-dose, and at 2, 8, 24, 48, 72 and 96 hour timepoints. For both tested compounds IV and PO dosing groups, whole blood was collected for plasma isolation at Pre-dose, and 0.033, 0.083, 0.167, 0.33, 1, 2, 4, 6, 8, 24, 48, 72 and 96 hour timepoints. The anti-coagulant solution used was 6% (v/v) Sodium citrate (200 mM, pH 4.79) (pre-chilled tubes). The whole blood from both IV and PO compound treatment dosing groups collected at Pre-dose, 2, 8, 24, 48, 72 and 96 hours were subjected to PBMC isolation.
For sample preparation, approximately 1-2 mL of whole blood was drawn from the peripheral vein and collected in labeled tubes containing lithium heparin, then stored on ice. The blood samples were centrifuged within 15 minutes to separate plasma at 1540 g at 4° C. for 10 minutes. The plasma was separated and transferred to pre-labeled microcentrifuge tubes and immediately frozen at −80±10° C. until bioanalysis. […]

Row | SMILES | DC50 (IRAK4) [nM] | AUC(0-t) ([1]; 5 mg/kg IV, mean) [ng·h/mL] | C0 ([1]; 5 mg/kg IV, mean) [ng/mL] | clearance ([1]; 5 mg/kg IV, mean) [mL/min/kg] | half-life ([1]; 5 mg/kg IV, mean) [h] | Vd ([1]; 5 mg/kg IV, mean) [L/kg] | AUC(0-t) ([1]; 10 mg/kg PO, mean) [ng·h/mL] | Cmax ([1]; 10 mg/kg PO, mean) [ng/mL] | bioavailability ([1]; 10 mg/kg PO, mean) [%] | AUC(0-t) ([1]; 5 mg/kg IV, mean (Table 5)) [ng·h/mL] | C0 ([1]; 5 mg/kg IV, mean (Table 5)) [ng/mL] | clearance ([1]; 5 mg/kg IV, mean (Table 5)) [mL/min/kg] | half-life ([1]; 5 mg/kg IV, mean (Table 5)) [h] | Vd ([1]; 5 mg/kg IV, mean (Table 5)) [L/kg] | AUC(0-t) ([1]; 10 mg/kg PO, mean (Table 6)) [ng·h/mL] | Cmax ([1]; 10 mg/kg PO, mean (Table 6)) [ng/mL] | bioavailability ([1]; 10 mg/kg PO, mean (Table 6)) [%]
1 | CC(C)Oc1cc2nc([C@H]3CC[C@H](CN4CCC(c5ccc6c(c5)n(C)c(=O)n6C5CCC(=O)NC5=O)CC4)CC3)cn2cc1C(=O)Nc1cnn2cccnc12 (stereo partly drawn) [Compound 48, 2-[4-[[4-[1-(2,6-dioxo-3-piperidyl)-3-methyl-2-oxo-benzimidazol-5-yl]-1-piperidyl]methyl]cyclohexyl]-7-isopropoxy-N-pyrazolo[1,5-a]pyrimidin-3-yl-imidazo[1,2-a]pyridine-6-carboxamide] | < 10 | 1720 | 4180 | 46.3 | 34.5 | 58.5 | 242 | 33.9 | 7.02 | – | – | – | – | – | – | – | –
2 | CC(C)Oc1cc2nc([C@H]3CC[C@H](CN4CCC(c5ccc6c(c5)n(C)c(=O)n6C5CCC(=O)NC5=O)CC4)CC3)cn2cc1C(=O)Nc1cccn([C@H]2C[C@H]2F)c1=O (stereo partly drawn) [Compound 169, 2-((1R,4S)-4-((4-(1-(2,6-dioxopiperidin-3-yl)-3-methyl-2-oxo-2,3-dihydro-1H-benzo[d]imidazol-5-yl)piperidin-1-yl)methyl)cyclohexyl)-N-(1-((1S,2R)-2-fluorocyclopropyl)-2-oxo-1,2-dihydropyridin-3-yl)-7-isopropoxyimidazo[1,2-a]pyridine-6-carboxamide] | < 10 | – | – | – | – | – | – | – | – | 2210 | 3160 | 35 | 42.5 | 58 | 472 | 32.2 | 10.7

From US20240343733A1, “COMPOUNDS FOR TARGETING DEGRADATION OF IRAK4 PROTEINS” (BIOGEN MA INC., priority 2021, published 2024)
